Like-named read-outs stand apart in the source and are kept apart here.

Data set [1] has as its system LMH (chicken hepatocarcinoma). Description: cells. The class given is cell-based. The settings on record: 16 hours of culture, ATP content. On the procedure:
(§1) The cytotoxic activity of the products was tested in tumor cell cultures C32 (human melanoma), TIB-75 (inducing murine hepatocarcinoma), LMH (chicken hepatocarcinoma).
B) LMH cells were cultured in D-MEM medium containing 10% fetal serum and penicillin+streptomycin at 37° C. in air/5% CO2 atmosphere saturated with water vapor. Each well contained 5×10^4 cells and 0.5 ml medium. […] After 16 hours of culture, cell state was recorded.
(§2) The cytotoxicity of the products was quantified by determining the ATP content in the cells and using neutral red intake, and the IC50ATP and IC50NR [μM] were determined.

The subject of another data set is C32 (human melanoma). Description: Cytotoxicity in C32 tumor cell culture, ATP content. The data set is classed as cell-based. The settings on record: C32 cells, 16 hours of culture. On the procedure:
(§3) After 16 hours of culture, cell state was recorded.
as §2

Data set [2] deals with TIB-75 (inducing murine hepatocarcinoma). Description: Cytotoxicity in TIB-75 tumor cell culture, ATP content. The data set is classed as cell-based. The following applies: TIB-75 cells, 16 hours of culture. On the procedure: as §3, §2
The subject of data set [3] is tumor cell cultures C32, TIB-75, LMH. Description: Cell state and growth in tumor cell cultures, controls and comparison products. The settings on record: 0-240 μM, 16 hours of culture. The procedure: As a control, the starting phospholipids were used at the same concentrations and conditions.
as §1
A) C32 cells were cultured in D-MEM medium containing 10% fetal serum and penicillin+streptomycin at 37° C. in air/5% CO2 atmosphere saturated with water vapor. Each well contained 5×10^4 cells and 0.5 ml medium. The tested products were added to the cells at concentrations of 0, 2.5, 5, 10, 20, 40, 80, 160 and 240 μM. After 16 hours of culture, cell state was recorded.
B) LMH cells were cultured in D-MEM medium containing 10% fetal serum and penicillin+streptomycin at 37° C. in air/5% CO2 atmosphere saturated with water vapor. Each well contained 5×10^4 cells and 0.5 ml medium. The tested phospholipids were added to the cells at concentrations of 0, 2.5, 5, 10, 20, 40, 80, 160 and 240 μM. After 16 hours of culture, cell state was recorded.
C) TIB-75 cells were cultured in D-MEM medium containing 10% fetal serum and penicillin+streptomycin at 37° C. in air/5% CO2 atmosphere saturated with water vapor. Each well contained 5×10^4 cells and 0.5 ml medium. The tested phospholipids were added to the cells at concentrations of 0, 2.5, 5, 10, 20, 40, 80, 160 and 240 μM. After 16 hours of culture, cell state was recorded.

Data set [4] concerns mammary gland 4T1 cancer cell line. Description: Crystal violet cytotoxicity assay, E-DAPL/Dox combination. The settings on record: for IC50: Mus musculus. The data set is classed as cell-based. The procedure:
The potentiation of cytotoxic effect of E-DAPL/Dox combination was evaluated. The dose-effect relationship of individual drugs and E-DAPL/Dox mixture (ratio 202:1 was tested) was determined on mammary gland 4T1 cancer cell line by means of crystal violet assay (three measurements). The linearized Median-Effect Plot of dose response line provided both parameters (IC50; trend line m value) of Median-Effect Equation for individual and combination treatment [ref: Theoretical basis, experimental design, and computerized simulation of synergism and antagonism in drug combination studies; Ting-Chao Chou: Pharmacol Rev. 58(3), 2006, 621-81; Erratum in Pharmacol Rev. 2007; 59(1), 124]:
Potentiation of combination effect of E-DAPL/Dox/202:1 was expressed for the concentrations IC1 to IC60 by calculation of Combination index (CI) applying Combination Index Theorem for mutually nonexclusive drugs that obey higher order conditions [ref: Quantitative analysis of dose-effect relationships: the combined effects of multiple drugs or enzyme inhibitors; Ting-Chao Chou, Paul Talalay: Advances in Enzyme Regulation, Volume 22, 1984, Pages 27-55]: […]

“1-acyl-lysophosphatidylcholine [PC/E-DAPL]”: the results for the IC50 (in data set [1]; in the data set with C32 (human melanoma); in data set [2]) were 35 µM, 50 µM and 45 µM, respectively.

For the molecule “1-acyl-lysophosphatidylethanolamine [PE/E-DAPL]”, the IC50 in data set [1] was found to be 30 µM; in the data set on C32 (human melanoma) it was 35 µM; in data set [2], 35 µM.

Take “1-stearoyl-phosphatidylcholine [sn-1 stearoyl PC]”: in data set [3], the “cytotoxic activity: effect on phenotype and rate of cell growth” value (“cytotoxic activity: effect” below) is recorded as “did not affect the phenotype or reduce the rate of cell growth”.

As for “2-acyl-lysophosphatidylcholine [2-acyl PC (15-20% 1-acyl PC), reference compound]”, the IC50 with C32 (human melanoma) is 200 µM; in data set [2] it was 210 µM.

As for `COc1cccc2c1C(=O)c1c(O)c3c(c(O)c1C2=O)C[C@@](O)(C(=O)CO)C[C@@H]3O[C@H]1C[C@H](N)[C@H](O)[C@H](C)O1` [Dox, doxorubicin], the “concentration of Dox at IC25” value in data set [4] (4T1 cell line, Dox alone or within E-DAPL/Dox 202:1) is 0.2306 µM. The IC50 in data set [4] (4T1 cell line, Dox alone or within E-DAPL/Dox 202:1, read-out: concentration of Dox at IC50 level) is 0.93 µM; in data set [4] (4T1 cells, crystal violet assay, calculated from the Median-Effect Plot, read-out: IC50), 0.93 µM.

`C[N+](C)(C)CCOP(=O)([O-])OCC(O)COC(=O)CCC1CCCC1` (stereo not drawn) [sn-1 cyclopentanepropionyl PC/E-DAPL]: the IC50 in data set [1] (Gallus gallus) was 130 µM; with C32 (human melanoma) (Homo sapiens) it was 150 µM.

For `CCCCCC(=O)OCC(O)COP(=O)([O-])OCC[N+](C)(C)C` (stereo not drawn) [sn-1 hexanoyl PC/E-DAPL], the results for the IC50 (in data set [1] (Gallus gallus); in the data set with C32 (human melanoma) (Homo sapiens); in data set [2] (Mus musculus)) were 135 µM, 130 µM and 135 µM, respectively.

In the case of `CCCCCCCCCCCCCCCCCC(=O)OCC(O)COP(=O)([O-])OCC[N+](C)(C)C` (stereo not drawn) [sn-1 stearoyl PC/E-DAPL], the IC50 is 40 µM in data set [1] (Gallus gallus), 45 µM with C32 (human melanoma) (Homo sapiens) and 45 µM in data set [2] (Mus musculus).

On to `CC(CC(=O)OCC(O)COP(=O)([O-])OCC[N+](C)(C)C)CC(C)(C)C` (stereo not drawn) [sn-1 trimethylhexanoyl PC/E-DAPL], for which the IC50 in data set [1] (Gallus gallus) came to 140 µM; in the data set with C32 (human melanoma) (Homo sapiens) it was 130 µM.

Regarding phosphatidylcholine [PC], the “cytotoxic activity: effect” value in data set [3] is “did not affect the phenotype or reduce the rate of cell growth”.

On to phosphatidylethanolamine [PE], for which the “cytotoxic activity: effect” value in data set [3] is “did not affect the phenotype or reduce the rate of cell growth”.

These data come from patent publication US11414443B2, “Phospholipid derivatives and their use as medicaments” (USTAV MOLEKULARNI GENETIKY AV CR, V.V.I., priority 2017, dated 2022).
